Drawing on a melting point compilation (Tetko et al.; mined from patent text by program, amines drawn as free bases though some values may be those of a salt), this text covers melting point for 35 molecules.

In general, melting point refers to the temperature of the solid-liquid transition.

`CC(c1ccc2ncccc2c1)n1nnc2ccc(-c3cnn(CCO)c3)nc21` (stereo not given) yielded a melting point of 188 to 191 °C.

`COC(=O)c1ccc(CCCNCC(O)c2cccc(Cl)c2)cc1` (stereo not given) had a melting point of 89 to 92 °C.

With `CCOC(=O)c1cc2c(cn1)[nH]c1cccc(Oc3ccc([N+](=O)[O-])cn3)c12`, the melting point was in the range of 298 to 300 °C.

For the molecule `COC(=O)/C(C#N)=C/c1cc(OC)c(OCCCl)cc1[N+](=O)[O-]`, the melting point lay within 157 to 160 °C.

In the case of `Cc1cccc(C)c1NC(N)=NOC1CCCCO1` (stereo not given), the melting point is 196 to 197 °C.

In the case of `COc1ccc(S(=O)c2ccccc2)cc1[N+](=O)[O-]` (stereo not given), the melting point lay in the range of 135 to 137 °C.

As to `COc1ccc(-c2cc3c(OC)cc(OC)cc3nc2OC(C)C(=O)N(C)C)cc1` (stereo not given), the melting point fell in the range of 54 to 55 °C.

For the molecule `Nc1cccc(-c2ccc(CCN3CCN(c4nc(-c5ccccc5)cs4)CC3)cc2)n1`, the melting point is 158 to 161 °C.

`CC1(C)C(CC(Cl)(Cl)Cl)C1C(=O)O` (stereo not given) displayed a melting point of 85 to 89 °C.

Turning to `CCn1ncc2c(NCc3cccc(O)c3)c3ccccc3nc21`, the melting point is greater than 240 °C.

Molecule `CCc1cccc(CC)c1NC(=O)c1c2n(c(C)cc1=O)CCCC2` yielded a melting point of 134 to 137 °C.

As for `Cc1cc([N+](=O)[O-])cc(N)c1[N+](=O)[O-]`, the melting point was in the range of 125 to 127 °C.

`COc1ccc(C(N)=O)c(OC)c1-c1ccc(C[C@H](NC(=O)c2c(Cl)cccc2Cl)C(=O)O)cc1`: the melting point fell in the range of 227 to 228 °C.

As to `CC(=O)N[C@@H](CSC(=O)C(C)C)C(=O)NCCSC(=O)C(C)(C)C`, the melting point lay within 101 to 102 °C.

Molecule `O=C(O)c1cc(OCC(F)(F)F)cc(Oc2cccc(C(F)(F)F)c2)n1` gave a melting point of 93 to 95 °C.

Turning to `O=[N+]([O-])c1ccc(S(=O)(=O)On2nnc3ccccc32)cc1`, the melting point is 120 to 122 °C.

`COC(=O)c1nc(CN2CCOCC2)n(-c2ccc(Cl)cc2C(=O)c2ccccc2)n1`: the melting point was 165 to 170 °C.

On to `CCCCCCCNC(=O)Nc1ccccc1CCc1cc(C(C)C)c(O)c(C(C)C)c1`, for which the melting point is 150 to 151 °C.

On to `CC(C)(C)c1cc(N(C(=O)CCCC(=O)O)c2ccccc2)cc(C(C)(C)C)c1O`, for which the melting point lay within 168 to 170 °C.

For the molecule `CC(=Cc1ccc(F)cc1)COc1cc(C)c(NC=O)c(C)c1C`, the melting point was 164 to 165 °C.

With `CCCc1nc(C)n2nc(S(=O)(=O)Cl)nc2c1Cc1ccc(-c2ccccc2C#N)cc1`, the melting point stood at 141 °C.

Molecule `Cc1c2n(c3ccccc13)C(=O)C(Cc1cccnc1)CC2` (stereo not given) yielded a melting point of 158 to 160 °C.

As for `O=C1CN2CCC1(Cc1ccccc1)CC2`, the melting point was determined as 111 °C.

In turn, `Cc1ccc(C2OC(=O)NC2=O)s1` (stereo not given) returned a melting point of 108 to 109 °C.

In turn, `CN(C)C(=N)Nc1ccccc1-c1cccc(F)c1` showed a melting point of 109 to 110 °C.

The molecule `O=c1oc2cc(O)cc(O)c2c(O)c1C1=CCOc2oc3ccccc3c(=O)c21` displayed a melting point of 254 to 256 °C.

Regarding `CCOC(=O)c1cn(CC)c2c(F)c(C(C)=O)c(F)cc2c1=O`, the melting point was in the range of 129 to 130 °C.

The molecule `COc1cc(OC)c2c(c1)C(C)(C)C(c1ccc(OC)c(OC)c1)C(C)C(=O)O2` (stereo not given) displayed a melting point of 163 to 165 °C.

With `CC(C)(C)c1cc(C(=O)NCc2ccc([N+](=O)[O-])cc2)cc(C(C)(C)C)c1O`, the melting point was in the range of 230 to 231 °C.

For the molecule `CCN(CC)C(=O)c1cc2ccc(Cl)cc2c(-c2ccccc2Cl)n1`, the melting point turned out to be 145 °C.

For `CC(C)(C)c1cc(-c2nn(CCCC(=O)O)c3ncccc23)cc(C(C)(C)C)c1O`, the melting point lay within 192 to 194 °C.

As to `NC(=S)NCCC(O)(c1ccc(F)cc1)c1ccccn1` (stereo not given), the melting point lay within 148 to 149 °C.

On to `Cc1nc(S(=O)(=O)Cc2ccc(Cl)cc2)nc2c1CCCC2`, for which the melting point was found to be 151 °C.

`O=C(/C=C/c1ccc2ccccc2n1)NO` registered a melting point of 160 °C.

For `CCCCCCCCCCCCNC(=O)COc1ccc(OC(=O)c2ccccc2)cc1[N+](=O)[O-]`, the melting point fell in the range of 110 to 111 °C.
